Laboratory results taken from US9464057B2, “Anti-malarial agents” (MMV MEDICINES FOR MALARIA VENTURE, priority 2013, dated 2016).
Like-named read-outs stand apart in the source and are kept apart here.

What was measured:
[1] = test system: multidrug-resistant P. falciparum line Dd2; test: P. falciparum growth inhibition by 3H-hypoxanthine incorporation; format: cell-based; conditions: Plasmodium falciparum
Procedure: The ability of pyrazole derivatives according to the invention to kill P. falciparum parasites and/or to inhibit its proliferation is assayed through their ability to inhibit Plasmodium falciparum growth determined by 3H-hypoxanthine incorporation. The assay is derived from the method originally described by Desjardin et al., 1979, Antimicrob. Agents Chemother, 16: 710-718 which was modified. The method assesses parasite growth as reflected by incorporation of radiolabeled hypoxanthine by parasites. P. falciparum in culture are exposed to graded dilutions of test compounds for 48 h and incorporation of 3H-hypoxanthine over the last 24 h into parasite nucleic acids is determined by liquid scintillation spectroscopy. The specific method is described below: The test compounds are diluted by three-fold serial dilutions, in triplicate wells, using low hypoxanthine medium (LHM) RPMI (Roswell Park Memorial Institute medium), 1640, 0.5% Albumax, 0.2% sodium bicarbonate, 0.025M HEPES, 2 mM glutamine, 50 μg/ml Gentamicin, 2.5 μg/ml hypoxanthine, pH 7.35) in sterile flat-bottomed 96 well plates. Final volume in each well is 100 μl. Triplicate control wells contain 100 μl LHM without any inhibitor.
The mixed stage parasitized red blood cells (RBCs), containing greater than 50% ring stage parasites, are diluted to 1% parasitemia using uninfected RBCs, washed two times with LHM, and diluted to 3% hematocrit with LHM. 100 μl of diluted parasites is added to each well. Thus, the final hematocrit is 1.5% with 0.5% parasitemia at the beginning of the assay.
The plates comprising the test wells are placed in a humidified chamber, gassed with 5% CO2, 5% O2, 90% N2, and placed in a 36.5° C. incubator for 24 h. After 24 h incubation, 0.25 μCi of 3H-hypoxanthine in 20 μL LHM is added to each well. Plates are returned to the chamber, gassed, and incubated for an additional 24 h. At the end of the second 24 h incubation, plates are transferred to a −80° C. freezer and stored for a minimum of 2 h. then Plates are thawed and the lysed material is transferred to EasyTabC glass fiber filters (Perkin Elmer; PE) using a Packard Filtermate 196 Cell Harvester. Filters are dried, placed in an Omnifilter Cassette (Perkin Elmer), and 30 μl of Microscint-O-high efficiency liquid scintillation cocktail (PE) is added to each 3 well. The plates are sealed with a Top-Seal for 96 well microplates (Perkin Elmer) and counted using a Packard TopCount-1 microplate liquid scintillation counter. Results are tabulated and graphed using Prism GraphPad software to determine effective EC50 values (concentration at which 50% parasite growth inhibition occurs).

[2] = test system: Plasmodium falciparum Pf3D70087/N9; test: in vivo therapeutic efficacy, 4-day-test in humanized mice; design: species or system NOD-scidIL2Rγnull mice engrafted with human erythrocytes; conditions: single oral dose per day for four consecutive days; for ED50: 50% inhibition of blood parasitemia by flow cytometry; for ED90: 90% inhibition of blood parasitemia by flow cytometry
Procedure: The ability of pyrazole derivatives according to the invention to show antimalarial efficacy in vivo can be tested by using the protocols described by Jimenez-Diaz et al., 2009, Antimicrob. Agents Chemother., 53:4533-4536. The therapeutic efficacy of compounds of invention against Plasmodium falciparum Pf3D70087/N9 growing in peripheral blood of NOD-scidIL2Rγnull mice engrafted with human erythrocytes. Efficacy is assessed by administering varying amounts of single oral doses of compounds per day for four consecutive days (4-day-test) and measuring their effect on blood parasitemia by flow cytometry. This assay provides effective doses of compounds capable of inhibiting 50% (ED50) and 90% (ED90) levels of parasitemia.

[3] = test system: field isolates of Plasmodium falciparum; test: ex vivo parasite growth inhibition assay, field isolates of Plasmodium falciparum; format: cell-based; conditions: P. falciparum field isolates (15 isolates), read-out: Median EC50
Source text: (§1) Compound 2 has also been tested against field isolates of Plasmodium falciparum (15 isolates) and Plasmodium vivax (15 isolates) using an ex vivo parasite growth inhibition assay as described in Marfurt et al., 2011, Antimicrob Agents Chemother., 55(3): 961.

[4] = test system: field isolates of Plasmodium vivax; test: ex vivo parasite growth inhibition assay, field isolates of Plasmodium vivax; format: cell-based; conditions: P. vivax field isolates (15 isolates), read-out: Median EC50
Source text: as §1

[5] = DD2, read-out: EC50 (concentration at which 50% parasite growth inhibition occurs)
[6] = P. falciparum Dd2, 48 h exposure, 3H-hypoxanthine incorporation over last 24 h, read-out: EC50 (concentration at which 50% parasite growth inhibition occurs)

| Structure (SMILES) | EC50 [1, 5] | ED50 [2] | ED90 [2] | EC50 [3] | EC50 [4] | EC50 [1, 6] |
| --- | --- | --- | --- | --- | --- | --- |
| CC(C)c1nc2ccccc2n1CC(=O)Nc1c(-c2ccc(Cl)cc2F)c(C(F)(F)F)nn1C [Compound 1, N-(4-(4-chloro-2-fluorophenyl)-3-(trifluoromethyl)-1-methyl-1H-pyrazol-5-yl)-2-(2-isopropyl-1H-benzo[d]imidazol-1-yl)acetamide] | 0.7 nM | 0.53 mg/kg per day | 0.94 mg/kg per day |  |  |  |
| Cc1nn(C)c(NC(=O)Cn2c(C(C)C)nc3ccccc32)c1-c1ccc(Cl)cc1F [Compound 2, N-(4-(4-chloro-2-fluorophenyl)-1,3-dimethyl-M-pyrazol-5-yl)-2-(2-isopropyl-M-benzo[d]imidazol-1-yl)acetamide] | 5.4 nM | 1.7 mg/kg per day | 2.5 mg/kg per day | 15 nM | 10 nM |  |
| Cc1nn(C)c(NC(=O)C[C@H](N)Cc2ccc(F)cc2)c1-c1ccc(F)cc1 [Compound 4, (R)-3-amino-4-(4-fluorophenyl)-N-(4-(4-fluorophenyl)-1,3-dimethyl-1H-pyrazol-5-yl) butanamide] | 8 nM | 3.0 mg/kg per day | 4.1 mg/kg per day |  |  |  |
| C[C@@H]1CC[C@H]2[C@@H](C)C(=O)O[C@@H]3O[C@@]4(C)CC[C@@H]1[C@]32OO4 [Artemisinin, reference compound] |  |  |  |  |  | 12 nM |
| O=C1C(O)=C([C@H]2CC[C@H](c3ccc(Cl)cc3)CC2)C(=O)c2ccccc21 [Atovaquone, reference compound] |  |  |  |  |  | 1 nM |
| COc1ccc(-c2c(C(F)(F)F)nn(C)c2NC(=O)Nc2ccc(F)cc2F)cc1 [Reference 1, reference compound] |  |  |  |  |  | 150 nM |
| Cn1nc(C(F)(F)F)c(-c2ccc(Br)cc2)c1NC(=O)Cc1ccccc1F [Reference 2, reference compound] |  |  |  |  |  | 50 nM |
| Cn1nc(C(F)(F)F)c(-c2ccc(F)cc2)c1NC(=O)C[C@H](N)Cc1ccc(F)cc1 [Compound 3, (R)-3-amino-N-(3-(trifluoromethyl)-4-(4-fluorophenyl)-1-methyl-1H-pyrazol-5-yl)-4-(4-fluorophenyl)butanamide] | 0.2 nM | 1.8 mg/kg per day | 3.0 mg/kg per day |  |  |  |
| CCN(CC)CCCC(C)Nc1ccnc2cc(Cl)ccc12 (stereo not shown) [Chloroquine, reference compound] |  | 4.3 mg/kg per day |  |  |  |  |
